Reference: patent publication US12215100B2, “Anticancer compounds” (Pharma Mar, S.A., priority 2018, dated 2025)

Assays:
Assay type in all cases: cell-based, human
[1] = test system: A549; assay: SRB colorimetric cytotoxicity assay, A549; settings: Homo sapiens, A549, 72 h, 72 hours treatment, lung carcinoma (NSCLC)
Excerpt: (§1) The aim of this assay is to evaluate the in vitro cytostatic (ability to delay or arrest tumor cell growth) or cytotoxic (ability to kill tumor cells) activity of the samples being tested.
(§2) A colorimetric assay, using sulforhodamine B (SRB) reaction has been adapted to provide a quantitative measurement of cell growth and viability (following the technique described by V. Vichai and K. Kirtikara (2006) Nature Protoc. 1, 1112-1116.)
(§3) This form of assay employs 96-well cell culture microplates. All the cell lines used in this study were obtained from the American Type Culture Collection (ATCC), unless otherwise indicated, and derive from different types of human cancer.
(§4) Cells were maintained in Dulbecco's Modified Eagle Medium (DMEM) (for A549, HT-29 and MDA-MB-231) or RPMI (for PSN-1) supplemented with 10% Fetal Bovine Serum (FBS), 2 mM L-glutamine, 100 U/mL penicillin and 100 U/mL streptomycin at 37° C., 5% CO2 and 98% humidity. For the experiments, cells were harvested from subconfluent cultures using trypsinization and resuspended in fresh medium before counting and plating.
(§5) Cells were seeded in 96 well microtiter plates, at 5×10^3 cells per well in aliquots of 150 μL, and allowed to attach to the plate surface for 18 hours (overnight) in drug free medium. After that, one control (untreated) plate of each cell line was fixed (as described below) and used for time zero reference value. […] After 72 hours treatment, the antitumor effect was measured by using the SRB methodology: Briefly, cells were washed twice with PBS, fixed for 15 min in 1% glutaraldehyde solution at room temperature, rinsed twice in PBS, and stained in 0.4% SRB solution for 30 min at room temperature. Cells were then rinsed several times with 1% acetic acid solution and air-dried at room temperature. SRB was then extracted in 10 mM trizma base solution and the absorbance measured in an automated spectrophotometric plate reader at 490 nm. Effects on cell growth and survival were estimated by applying the NCI algorithm (Boyd M R and Pauli K D. Drug Dev Res. 1995, 34, 91-104).
(§6) Using the mean±SD of triplicates, a dose-response curve was automatically generated using nonlinear regression analysis to a 4-parameter logistic curve. Three reference parameters were calculated (NCI algorithm) by automatic interpolation: GI50=compound concentration that produces 50% cell growth inhibition, as compared to control cultures; TGI=total cell growth inhibition (cytostatic effect), as compared to control cultures, and LC50=compound concentration that produces 50% net cell killing (cytotoxic effect).

[2] = test system: HT29; assay: SRB colorimetric cytotoxicity assay, HT29; settings: Homo sapiens, HT-29, 72 h, 72 hours treatment, colorectal adenocarcinoma
Excerpt: as §1, §2, §3, §4, §5, §6

[3] = test system: MDA-MB-231; assay: SRB colorimetric cytotoxicity assay, MDA-MB-231; settings: Homo sapiens, MDA-MB-231, 72 h, 72 hours treatment, breast adenocarcinoma
Excerpt: as §1, §2, §3, §4, §5, §6

[4] = test system: PSN-1; assay: SRB colorimetric cytotoxicity assay, PSN-1; settings: Homo sapiens, PSN1, 72 h, 72 hours treatment, pancreatic adenocarcinoma
Excerpt: as §1, §2, §3, §4, §5, §6

| Structure (SMILES) | GI50 [1] [nM] | GI50 [2] [nM] | GI50 [3] [nM] | GI50 [4] [nM] |
| --- | --- | --- | --- | --- |
| C=C(C)C1=N[C@](C)(C(=O)N[C@H](CCC)c2cc(OCC3CC3)cc(=O)o2)CS1 [Compound 182] | 61.8 | 74.2 | 91.5 | 81.6 |
| CCC[C@@H](NC(=O)[C@]1(C)CSC(C(C)=O)=N1)c1cc(OCC2CC2)cc(=O)o1 [Compound 65] | 1890 | 1080 | 1030 | 1250 |
| COc1cc([C@@H](CC(C)C)NC(=O)[C@]2(C)CSC(/C(C)=N\O)=N2)oc(=O)c1 [Compound 69a] | 5060 | 3790 | 4550 | 6320 |
| CCC[C@@H](NC(=O)[C@]1(C)CSC(/C(C)=N/O)=N1)c1cc(OCC)cc(=O)o1 [Compound 70] | 14.4 | 14.9 | 23.8 | 14.9 |
| COc1cc([C@@H](CCC(F)(F)F)NC(=O)[C@]2(C)CSC(/C(C)=N\O)=N2)oc(=O)c1 [Compound 140a] | 2530 | 1520 | 2270 | 2760 |
| CCC[C@@H](NC(=O)[C@]1(C)CSC(/C(C)=N/CCCNC(=O)OC(C)(C)C)=N1)c1cc(OCC2CC2)cc(=O)o1 [Compound 116] | 302 | 249 | 195 | 302 |
| CCC[C@@H](NC(=O)[C@@H]1CSC(C(C)=O)=N1)c1cc(OCC2CC2)cc(=O)o1 [Compound 177] | 2270 | 1550 | 1610 | > 25500 |
| CCC[C@@H](NC(=O)[C@]1(C)CSC(/C(C)=N/OCCCNC(=O)OC(C)(C)C)=N1)c1cc(OCC2CC2)cc(=O)o1 [Compound 157] | 5.37 | 5.02 | 5.37 | 5.54 |
| CCC[C@@H](NC(=O)[C@]1(C)CSC(/C(C)=N/O[C@H]2O[C@@H]3COC(C)(C)O[C@H]3[C@@H]3OC(C)(C)O[C@H]23)=N1)c1cc(OCC2CC2)cc(=O)o1 [Compound 179] | 9.04 | 6.48 | 13.7 | 14.3 |
| CCCCCCCCCCCCCCCCCOc1cc([C@@H](CCC)NC(=O)[C@]2(C)CSC(C(C)(OCC)OCC)=N2)oc(=O)c1 [Compound 49] | 1340 | 932 | 1500 | 1460 |
| C#CCOc1cc([C@@H](CCC)NC(=O)[C@]2(C)CSC(C(C)(OCC)OCC)=N2)oc(=O)c1 [Compound 51] | 344 | 215 | 323 | 366 |
| CCCCCCCOc1cc([C@@H](CCC)NC(=O)[C@]2(C)CSC(C(C)(OCC)OCC)=N2)oc(=O)c1 [Compound 48] | 3430 | 2290 | 2290 | 2100 |
| CCC[C@@H](NC(=O)[C@]1(C)CSC(/C(C)=N/OC(=O)COCCOCCOC)=N1)c1cc(OC)cc(=O)o1 [Compound 95] | 20.3 | 40.6 | 44.3 | 33.2 |
| C=Cc1cc([C@@H](CCC)NC(=O)[C@]2(C)CSC(/C(C)=N/O)=N2)oc(=O)c1 [Compound 79] | 424 | 397 | 344 | 477 |
| C#CCOc1cc([C@@H](CCC)NC(=O)[C@]2(C)CSC(/C(C)=N/O)=N2)oc(=O)c1 [Compound 75] | 1.01 | 0.962 | 1.38 | 1.18 |
| CCCCCCCCCCCCCCCCCOc1cc([C@@H](CCC)NC(=O)[C@]2(C)CSC(/C(C)=N\O)=N2)oc(=O)c1 [Compound 73a] | 64.4 | 62.7 | 66 | 59.4 |
